Test results published in patent US5324725A, “7-fused 2-(piperazinoalkyl) indole derivatives, intermediates and compositions thereof” (Kali-Chemie Pharma GmbH, priority 1991, dated 1994).
Where two headings read alike, the source gives them in different places.

What was measured:
[1] = tested on: P.A.F.-induced aggregation of platelets from rabbit blood; test: Anti-P.A.F. effect in vitro: inhibition of P.A.F.-induced platelet aggregation; assay type: cell-based, rabbit (New Zealand hybrids); settings: test substance concentration 10^-5 mol/l; for inhibition at 10 µM: Oryctolagus cuniculus, Platelet
Excerpt: 4. Determination of anti-P.A.F. effect in vitro.
Platelet-activating factor (P.A.F.) is a phospholipid mediator which has several effects. The activation of platelet aggregation leads to the induction of protracted broncho contractions and hyperreactivity of the airways.
The effects of the test substances on platelet aggregation induced by adding P.A.F. to a platelet suspension obtained from rabbit blood was investigated by the method described by Mikashima et al. (Jap. J. Pharmacol. 44 (1987) 387-391).
A suspension of platelets originating from rabbit blood was used which contained 4×10^9 platelets/ml in a modified Tyrode buffer solution adjusted to pH 7.4. Tyrode solution is an aqueous solution containing 136.9 mmol of NaCl, 2.68 mmol of KCl, 2.31 mmol of CaCl2, 1.0 mmol of MgCl2, 11.9 mmol of NaHCO3, 1.45 mmol of NaH2 PO4 and 5.55 mmol of glucose per liter. This solution was modified by adding 1.3 mM/l of CaCl2 and 2.5 g/l of gelatin. The platelets were obtained from 10 ml blood samples from each of three rabbits (New Zealand hybrids, body weight 3-4 kg). For this, the blood samples were treated with ethylenediaminetetraacetic acid and washed by the method of Artley et al. (Brit. J. Hamatol. 19 (1970), 7-17). A platelet-rich plasma was then initially separated by centrifugation (20 minutes at 400×g). The platelets were separated from the plasma by centrifuging again for 15 minutes at 1400×g. After centrifuging, the platelets remaining as a sediment were resuspended in a calcium-free Tyrode buffer solution. 0.4 mmol of lysine acetylsalicylate were then added and after 15 minutes the blood platelets were sedimented again. The sediment was resuspended in the abovementioned modified Tyrode buffer solution, and the number of platelets in the resulting suspension was adjusted to the desired content.
A 40×10^-9 molar P.A.F. solution was used as the reagent. This solution was prepared from a 1.8×10^-3 molar stock solution in chloroform. For this, a 10μl sample of the stock solution was evaporated to dryness and redissolved in 180 μl of the modified Tyrode solution, to which 0.25% of dilapidated bovine serum albumin had been added. 10^-5 molar working solutions were then prepared from this and stored frozen. Samples of these solutions were appropriately diluted for the tests.
To carry out the tests, 50 μl of the platelet solution and 10 μl of a 40×10^-5 molar solution of the compound to be investigated were added to 330 μl of the modified Tyrode buffer solution with stirring (1000 rpm) in an aggregation tube provided with a small magnetic stirrer. This corresponds to a final test substance concentration of 10^-5 mol/l. After a preincubation time of 90seconds, 10 μl of the P.A.F. preparation were added. The aggregation occurring in the aggregation tubes was measured for 4-5 minutes using a computerized aggregometer.
The aggregation occurring in the test tubes containing only platelet suspension was rated as 0%. The aggregation occurring in test tubes containing platelet suspension and P.A.F. preparation was rated as 100%. The aggregation which still occurred in the presence of the test substances (i.e. during inhibition of the P.A.F.-induced platelet aggregation increase) was measured, and the resulting aggregation inhibition is calculated from this in %.

[2] = target: T1, histamine (H1) receptor (Cavia porcellus, UniProt P31389); test: Antihistamine (H1) effect: inhibition of histamine-induced contractions of isolated guinea-pig ileum in vitro; assay type: cell-based, guinea-pig (Dunkin Hartley); settings: histamine 5 × 10^-6 mol/l, test substance 10^-6 mol/l
T1 construct: isolated smooth muscle of the guinea-pig ileum; from tissue; host or cells: isolated ileum segments of Dunkin Hartley guinea-pigs
T1 sequence (P31389 whole entry): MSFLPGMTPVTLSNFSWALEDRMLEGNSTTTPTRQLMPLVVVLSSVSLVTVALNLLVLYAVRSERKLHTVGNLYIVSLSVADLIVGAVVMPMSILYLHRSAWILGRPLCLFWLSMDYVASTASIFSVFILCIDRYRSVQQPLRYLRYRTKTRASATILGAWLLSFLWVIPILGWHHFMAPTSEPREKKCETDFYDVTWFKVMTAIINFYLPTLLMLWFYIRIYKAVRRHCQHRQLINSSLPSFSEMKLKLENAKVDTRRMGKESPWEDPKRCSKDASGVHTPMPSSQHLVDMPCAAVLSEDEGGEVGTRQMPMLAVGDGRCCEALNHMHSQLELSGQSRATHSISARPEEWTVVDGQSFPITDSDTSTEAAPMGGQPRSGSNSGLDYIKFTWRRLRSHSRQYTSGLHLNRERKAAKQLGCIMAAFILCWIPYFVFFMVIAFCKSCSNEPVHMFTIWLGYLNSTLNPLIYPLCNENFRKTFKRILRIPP
Method: 3. Investigation of the antihistamine (H1) effect based on histamine (H1) receptor antagonism in vitro.
To investigate the histamine (H1) receptor antagonism of the substances, the inhibitory effect thereof on histamine-induced contractions of the smooth musculature of isolated organ was determined in vitro. Isolated strips of organ from the ileum were used. In an organ bath of physiological saline solution, they react to addition of histamine by contracting. Addition of the compounds of the invention decreases this histamine-induced contraction of the smooth musculature of the ileum strips. The extent of decrease of the contraction is an indication of the antihistamine (H1) activity of the compounds. The investigation is carried out analogously to the method originally described by Magnus (Pflugers Arch. 102, 123 (1904)).
Experimental description of the determination of the inhibitory effect on the contraction induced by a 5×10^-6 molar histamine concentration on isolated smooth muscle of the guinea-pig ileum.
For the test, 1.5 cm long segments of the ileum from Dunkin Hartley guinea-pigs having a body weight of 300-500 g were employed. Each strip was placed in an organ bath of 10 ml of Krebs-Henseleit physiological saline solution and attached to a customary apparatus for isotonically measuring changes in length of the ileum strip (automated Celaster measuring apparatus) so that the tissue is under a tension of 1 g. The bath was kept at a pH of 7.4 and aerated with a mixture of 5% CO2 and 95% O2. After an equilibration phase, an isotonic contraction of the tissue was produced by adding histamine in a final concentration of 5×10^-6 mol/l and was washed out again after a contact time of 30 seconds. Only those tissues in which three reproducible contractions were obtained at 10 minute intervals were used in the subsequent test. The test substances were then added in a final concentration of 10^-6 mol/l, and after a contact time of 30 seconds histamine was again added up to a concentration of 5×10^-6 mol/l. The contractions which occurred were measured over the course of 30 seconds. The tissue was then washed several times over a period of 10 minutes. A contraction challenge was then induced again by addition of histamine. The contractions which occurred were again measured over 30 seconds. The difference between the amplitude of the contraction obtained by histamine addition alone and the amplitude of the contraction obtained in the presence of the test substance was determined and calculated as % inhibition.
The inhibitory effects on the contractions induced by histamine 30 seconds after administration of the test substance and on the contractions induced by addition of histamine 10 minutes afterward are given in the table.

[3] = tested on: Passive cutaneous anaphylaxis (P.C.A.); test: Inhibition of passive cutaneous anaphylaxis (P.C.A.); assay type: in vivo, rat (Sprague-Dawley); settings: Rattus norvegicus, 1 h; rats, 2 × 10^-5 mol/kg p.o., one hour before ovalbumin challenge
Method: (§1) 1. Determination of the inhibition of passive cutaneous anaphylaxis (P.C.A.) and of the anaphylactoid cutaneous reaction induced by histamine.
The P.C.A. reaction was carried out according to the methods described by Goose et al. (J.N. Immunology 16 (1969), 749) and by Martin et al (Arch. Pharmacol. 316 (1981), 186}.
The IgE-rich ovalbumin antiserum used in the test was obtained from immunized Brown-Norway rats. For immunization, the rats were given an i.p. injection of a mixture of 100 μg of ovalbumin with a Bordetella pertussis suspension (Vaxicoq®, Manufacturer: Institut Merieux, containing 5×10^9 organisms and 1.25 mg of Al(OH)3). After 20 days, the animals received a further i.p. injection of a solution of 10 μg of ovaIbumin in 0.5 ml of physiological saline solution for reimmunisation. After a further four days, the animals were bled, and the blood was centrifuged The antiserum obtained in this way was stored at -20° C. until use.
(§2) The determination of the inhibition of passive cutaneous anaphylaxis and the anaphylactoid cutaneous reaction induced by histamine was carried out as follows:
Sprague-Dawley rats having a body weight of 150-180 g were injected intradermally in one flank with 50 μl of a 1:75 dilution of the IgE-rich ovalbumin antiserum in physiological sodium chloride solution for passive sensitization to ovalbumin.
24 hours after sensitization a solution of 8.25 mg/kg of ovalbumin and 26.4 mg/kg of a blue dye (Evans' Blue) was administered i.v. to the rats according to Martin et al. to induce passive cutaneous anaphylaxis. The ovalbumin challenge caused a local anaphylactic reaction at the site at which the antiserum had been injected.
(§3) On the test days, the test substances were dissolved in distilled water which contained 1% by volume of dimethylformamide and 1% by volume of Tween®20 (polyoxyethylene(20) sorbitan monolaurate). One hour before the challenging ovalbumin administration, each animal received 2×10^-5 mol/kg of test substance administered orally in 0.5 ml of solution. A control group received only the solvent for comparison.
(§4) The oedematous anaphylactic (P.C.A.) and anaphylactoid (histamine-induced) reactions caused by the challenging i.v. ovalbumin injection, which are manifested by oedema formation, swelling and exudation of blue dye, were evaluated 30 minutes after challenge by the i.v. ovalbumin injection. This was done by visual determination of the extent to which the blue dye emerges at the sites of oedema formation. The percentage inhibition of anaphylactic and anaphylactoid reactions caused by the test substances was determined in comparison with the reactions of the control animals not treated with test substance with the aid of comparison scales.
(§5) The results obtained by the above test methods using compounds of the formula I are shown in the following Table A. The example numbers given for the compounds of formula I relate to the following preparation examples.

[4] = tested on: Histamine-induced anaphylactoid reactions; test: Inhibition of anaphylactoid cutaneous reaction induced by histamine; assay type: in vivo, rat (Sprague-Dawley); settings: Rattus norvegicus, 1 h; rats, 2 × 10^-5 mol/kg p.o., one hour before challenge; histamine intradermal
Method: as §1, §2
To determine the histamine-induced anaphylactoid skin reaction, the animals were injected intradermally in the flank opposite to the antiserum administration with 50 μl of a physiological saline solution containing 0.8 mg/ml of histamine directly before the i.v. injection of the solution containing the ovalbumin and the blue dye.
as §3, §4, §5

[5] = after 30 sec., read-out: in vitro (H1) receptor antagonism % inhibitory effect on histamine-induced contractions of the Ileum, after 30 sec.
[6] = after 10 min. (after washing), read-out: in vitro (H1) receptor antagonism % inhibitory effect on histamine-induced contractions of the Ileum, after 10 min.

Row | Structure (SMILES) | inhibition at 1 µM [2, 5] | inhibition at 1 µM [2, 6] | inhibition at 10 µM [1] | inhibition in vivo at 20 µmol/kg [3] | inhibition in vivo at 20 µmol/kg [4] | also measured
1 | Cc1ccnc(N2CCN(CCc3c(-c4ccc(O)cc4)n4c5c(cccc35)CCC4)CC2)c1 [Example 97] |  |  |  |  |  | % inhibition of the P.A.F.-induced aggregation of platelets from rabbit blood [1]: 99%
2 | CSc1cc2c3c(c1)c(CCN1CCN(c4cc(C)ccn4)CC1)c(C)n3CCS2 [Example 78] | 12% | 92% | 98% |  |  | 
3 | Cc1ccc(N2CCN(CCc3c(C)n4c5c(cc(C(=O)C(C)C)cc35)CCC4)CC2)nc1 [Example 95] | 10% | 71% |  |  |  | 
4 | Cc1ccnc(N2CCN(CCc3c(C)n4c5c(cccc35)CCCC4)CC2)c1 [Example 31, 4,5,6,7-tetrahydro-2-methyl-1-{2-[4-(4-methylpyridin-2-yl)piperazin-1-yl]ethyl}-pyrrolo[3,2,1-jk]benzazepine] | 31% | 89% | 95% |  |  | 
5 | Cc1cccc(N2CCN(CCc3c(C)n4c5c(cccc35)CCC4)CC2)n1 [Example 50] | 24% | 50% |  | 60% | 50% | 
6 | COc1cccc(N2CCN(CCc3c(C)n4c5c(cccc35)CCC4)CC2)c1 [Example 48] | 35% | 48% |  | 25% | 35% | 
7 | CNc1cc2c3c(c1)c(CCN1CCN(c4cc(C)ccn4)CC1)c(C)n3CCC2 [Example 29, 5,6-Dihydro-2-methyl-8-methylamino-1-{2-[4-(4-methylpyridin-2-yl)piperazin-1-yl]ethyl}-4H-pyrrolo[3,2,1-ij]quinoline] |  |  |  |  |  | in vitro (H1) receptor antagonism % inhibitory effect on histamine-induced contractions of the Ileum, after 30 sec. ([2]; after 30 sec.): 7%; in vitro (H1) receptor antagonism % inhibitory effect on histamine-induced contractions of the Ileum, after 10 min. ([2]; after 10 min. (after washing)): 30%
8 | Cc1ccnc(N2CCN(CCCc3c(C)n4c5c(cccc35)CCC4)CC2)c1 [Example 17, 5,6-dihydro-2-methyl-1-{3-[4-(4-methylpyridin-2-yl)piperazin-1-yl]-propyl}-4H-pyrrolo[3,2,1-ij]quinoline] |  |  |  | 45% | 25% | 
9 | Cc1ccnc(N2CCN(CCc3c(C)n4c5c(cccc35)[S+]([O-])CC4)CC2)c1 (centres unmarked) [Example 28a, 2,3-Dihydro-5-methyl-6-{2-[4-(4-methylpyridin-2-yl)-piperazin-1-yl]ethyl}-pyrrolo[1,2,3-de]-1,4-benzothiazine-1-oxide] | 25% | 24% |  | 100% | 90% | 
10 | Cc1ccnc(N2CCN(CCc3c(C)n4c5c(cccc35)S(=O)(=O)CC4)CC2)c1 [Example 28b, 2,3-dihydro-5-methyl-6-{2-[4-(4-methylpyridin-2-yl)-piperazin-1yl]ethyl}-pyrrolo[1,2,3-de]-1,4-benzothiazine-1,1-dioxide] | 6% | 14% |  | 100% | 85% | 
11 | Cc1ccnc(N2CCN(CCc3c(Cc4ccccc4)n4c5c(cccc35)CCC4)CC2)c1 [Example 32, 2-Benzyl-5,6-dihydro-1-{2-[4-(4-methylpyridin-2-yl)-piperazin-1-yl]ethyl}-4H-pyrrolo[3,2,1-ij]quinoline] |  |  | 100% |  |  | 
12 | COc1ccc(-c2c(CCN3CCN(c4cc(C)ccn4)CC3)c3cccc4c3n2CCC4)cc1 [Example 96] |  |  |  |  |  | % inhibition of the P.A.F.-induced aggregation of platelets from rabbit blood [1]: 98%
13 | Cc1ccc(-c2c(CCN3CCN(c4cc(C)ccn4)CC3)c3cccc4c3n2CCC4)cc1 [Example 86] |  |  | 100% |  |  | 
